Source: PMC7395068, “The evolution of strategies to minimise the risk of human drug-induced liver injury (DILI) in drug discovery and development” (Archives of Toxicology, 2020)

Key:
[1] = Total human plasma exposure Cmax.tot; type: in vivo; conditions: across literature references
HepaRG cells = conditions: HepaRG cells, BMCs in relation to 10 × human Cmax.tot; ref National Toxicology Program; cited from earlier work

Compound | difference in Cmax.tot values utilised across studies [1] | DILI identification by high-throughput transcriptomics (HepaRG cells)
CC(C)C(=O)Nc1ccc([N+](=O)[O-])c(C(F)(F)F)c1 [flutamide, reference compound] | 16.6 fold | 
Cc1c(C)c2c(c(C)c1O)CCC(C)(COc1ccc(CC3SC(=O)NC3=O)cc1)O2 (centres unmarked) [troglitazone, reference compound] |  | identified
